From US20040097478A1, “Remedies for retina and choroid diseases containing steroids as the active ingredient” (SANTEN PHARMACEUTICAL O., LTD, priority 2001, published 2004) come the findings set out here.

Test [1] concerns Thrombin-induced rat retinal vessel hyperpermeability models. Nature of the test: Retinal vessel permeability inhibition tests of betamethasone phosphate. Type of test: in vivo. The note with it: administered with thrombin. The method, then:
A one ml/kg mixed solution (7:1) of a 5% ketamine hydrochloride injection and a 2% xylazine hydrochloride injection was intramuscularly administered to rats to anesthetize them systemically. Then, a 0.5% tropicamide-0.5% phenylephrine hydrochloride ophthalmic solution was instilled into left eyes to cause mydriasis. Thrombin (500. U/ml, 2.5 μl) was injected into vitreous bodies (left eye) of rats of a drug administration group and a control group with a 33 G needle without injuring crystalline lenses and retinas while observing them with a microscope for operation. A vehicle (Dulbecco's modified phosphate buffer physiological saline) was administered to rats of a normal group instead of thrombin. […]
Forty-eight hours after administering thrombin intravitreously, the 0.5% tropicamide-0.5% phenylephrine hydrochloride ophthalmic solution was instilled into the eyes to cause mydriasis. […] About 40 minutes after administering fluorescein, blood was collected from hearts, and then an intraocular fluorescent pigment concentration was immediately measured with a fluorotron master. The collected blood was centrifuged at 15,000 rpm×5 minutes, then supernatant (plasma) was diluted 51 times with the phosphate buffer physiological saline, and a fluorescent pigment concentration in the plasma was measured with the fluorotron master. […]

Test [2] deals with Laser-induced rat choroidal neovascularization models. Conditions: for Neovascularization exhibition rate (%, average of eight eyes): fluorescein fundus angiography on seventh day; for Choroidal neovascularization inhibition rate (%): versus vehicle administration group. As for the experimental part:
(§1) A one ml/kg mixed solution (7:1) of a 5% ketamine hydrochloride injection and a 2% xylazine hydrochloride injection was administered intramuscularly to rats to anesthetize them systemically. A 0.5% tropicamide-0.5% phenylephrine hydrochloride ophthalmic solution was instilled into the eyes to cause mydriasis, and then photocoagulation was performed with a krypton laser photocoagulation apparatus. The photocoagulation was carried out in a posterior section of ocular fundus at eight spots per eye sparsely avoiding thick retinal vessels and focusing on the retinal depth (coagulation conditions: spot size: 100 μm, output: 100 mW, coagulation time: 0.1 sec). After the photocoagulation, the ocular fundus was photographed to confirm laser irradiation sites.
Triamcinolone was suspended in the phosphate buffers as a comparative group so that its concentrations were 0.2 mg/ml and 2 mg/ml, and each suspension was administered similarly. The phosphate buffer was administered similarly as a vehicle administration group.
(§2) On seventh day after the photocoagulation, 0.1 ml of 10% fluorescein was injected from carotid vein, and fluorescein fundus angiography was performed. In the fluorescein fundus angiography, a spot where fluorescence diapedesis was not observed was judged as negative, and a spot where fluorescence diapedesis was observed was judged as positive. Each neovascularization exhibition rate was obtained by calculating the ratio of a positive spot number to eight spots irradiated with the laser, and each choroidal neovascularization inhibition rate was calculated according to the following equation.
(§3) Choroidal neovascularization inhibition rate (%)=(Ao−Ax)/Ao×100
(§4) Ao: Neovascularization exhibition rate of vehicle administration group
(§5) Ax: Neovascularization exhibition rate of drug administration group

Test [3] has the same test system. The test can be described thus: Choroidal neovascularization inhibition tests of hydrocortisone. Type of test: in vivo. Conditions: for Neovascularization exhibition rate (%, average of eight eyes): administered once subconjunctivally immediately after laser irradiation; for Choroidal neovascularization inhibition rate (%): once subconjunctivally, versus vehicle administration group. As for the experimental part:
as §1, §2, §3, §4, §5
Hydrocortisone was dissolved in phosphate buffers so that its concentrations were 2 mg/ml and 20 mg/ml, and each solution was administered once subconjunctivally in an amount of 50 μl immediately after laser irradiation. The phosphate buffer was administered similarly as a vehicle administration group.
Evaluation was carried out by a method similar to the above-mentioned tests of betamethasone sodium phosphate.

Test [4] deals with Dispase-induced rabbit PVR models. The test can be described thus: Retinal detachment inhibition tests of betamethasone. The class given is in vivo. The note with it: 10 mg/eye subconjunctival immediately after dispase. The method, then:
A 0.5% tropicamide-0.5% phenylephrine hydrochloride ophthalmic solution was instilled into eyes of rabbits to cause mydriasis, and a 1 ml/kg mixed solution (7:1) of a 5% ketamine hydrochloride injection and a 2% xylazine hydrochloride injection was administered intramuscularly to the rabbits to anesthetize them systemically. 0.4% oxybuprocaine was instilled into the eyes to anesthetize anterior segments of the eyes, and then 100 μl of a dispase solution prepared at a concentration of 0.05 U/100 μl with physiological saline was injected into vitreous bodies. Six weeks and ten weeks after injecting the dispase solution, PVR induced by dispase was confirmed by observing ocular fundus.
Betamethasone was dissolved in a phosphate buffer so that its concentration was 0.1 g/ml, and the solution was administered subconjunctivally in an amount of 100 μl immediately after injecting dispase. The phosphate buffer was administered similarly as a vehicle administration group.
The ocular fundus was observed 56 days after inducing by dispase, and PVR was judged by scores. Criteria of judgment are shown below. Scores of three or more were defined as exhibition of PVR, and pathogenesis rates of PVR (pathogenesis rates of retinal detachment) in respective groups were calculated according to the equation 2.
1: A vitreous membrane is observed.
2: Traction, vascular abnormality or engorgement of the retina is observed.
3: Topical retinal detachment is observed.
4: Wide retinal detachment is observed.
5: Total retinal detachment is observed.
Pathogenesis rate of PVR (%)=PVR exhibition eye number/test eye number×100

Where [5] appears, read: 10 μg/eye/day subconjunctival for seven days after laser irradiation.
Where [6] appears, read: 100 μg/eye/day subconjunctival for seven days after laser irradiation.

Like-named read-outs stand apart in the source and are kept apart here.

`C[C@H]1C[C@H]2[C@@H]3CCC4=CC(=O)C=C[C@]4(C)[C@@]3(F)[C@@H](O)C[C@]2(C)[C@@]1(O)C(=O)COP(=O)([O-])[O-].[Na+].[Na+]` [Betamethasone sodium phosphate, betamethasone sodium phosphate]: the “Effect on hyperpermeability of retinal vessels due to thrombin (in words)” value in test [1] is on record as “the hyperpermeability of retinal vessels due to thrombin is inhibited”. In addition, the “Neovascularization exhibition rate (%, average of eight eyes)” value is given as 34.4% in test [2] (setting [5]) and 11.1% in test [2] (setting [6]).
Take `C[C@]12CCC(=O)C=C1CC[C@@H]1[C@@H]2[C@@H](O)C[C@@]2(C)[C@H]1CC[C@]2(O)C(=O)CO` [Hydrocortisone]: the “Neovascularization exhibition rate (%, average of eight eyes)” value is on record as 45.3% in test [3] (100 μg/eye/day) and 19.6% in test [3] (1000 μg/eye/day). Besides, the “Choroidal neovascularization inhibition rate (%)” value in test [3] (100 μg/eye/day) amounted to 32.6%; in test [3] (1000 μg/eye/day), 70.8%. Moreover, in test [3] (both dosages of 100 μg/eye/day and 1,000 μg/eye/day), the “Inhibitory effect on choroidal neovascularization (in words)” value was “has an inhibitory effect on choroidal neovascularization”.
On to `C[C@]12C=CC(=O)C=C1CC[C@H]1[C@@H]3C[C@@H](O)[C@](O)(C(=O)CO)[C@@]3(C)C[C@H](O)[C@@]12F` [Triamcinolone], for which the “Neovascularization exhibition rate (%, average of eight eyes)” value is reported as 46.9% in test [2] (setting [5]) and 22.3% in test [2] (setting [6]). Besides, the “Choroidal neovascularization inhibition rate (%)” value is reported as 13.1% in test [2] (10 μg/eye/day subconjunctival for seven days) and 58.8% in test [2] (100 μg/eye/day subconjunctival for seven days).
As for `C[C@H]1C[C@H]2[C@@H]3CCC4=CC(=O)C=C[C@]4(C)[C@@]3(F)[C@@H](O)C[C@]2(C)[C@@]1(O)C(=O)CO` [Betamethasone], the “Pathogenesis rate of PVR” value in test [4] (after 6 weeks) is given as 45.5%; in test [4] (after 10 weeks) it was 37.5%; in test [4] (after 10 weeks, listed as betamethasone) it was 37.5%.
